# Experiments:
# [1] = molecular target: human CB1 receptor (hCB1) (Homo sapiens, UniProt P21554); format: cell-based
# [2] = molecular target: T1, rat CB2 receptor (rCB2) (Rattus norvegicus, UniProt Q9QZN9)
# T1 sequence (Q9QZN9 1-360): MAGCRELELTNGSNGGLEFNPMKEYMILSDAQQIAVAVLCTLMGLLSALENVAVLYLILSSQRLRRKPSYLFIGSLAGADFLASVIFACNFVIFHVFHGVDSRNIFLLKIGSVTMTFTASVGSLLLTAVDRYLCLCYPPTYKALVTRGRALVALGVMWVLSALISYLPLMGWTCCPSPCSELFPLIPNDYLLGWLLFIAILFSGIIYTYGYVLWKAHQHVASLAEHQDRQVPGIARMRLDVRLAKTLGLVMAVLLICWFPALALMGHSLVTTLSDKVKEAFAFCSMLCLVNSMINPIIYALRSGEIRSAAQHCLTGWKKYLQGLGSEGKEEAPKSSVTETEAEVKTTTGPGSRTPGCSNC
# Sequence of human CB1 receptor (hCB1) (P21554 whole entry): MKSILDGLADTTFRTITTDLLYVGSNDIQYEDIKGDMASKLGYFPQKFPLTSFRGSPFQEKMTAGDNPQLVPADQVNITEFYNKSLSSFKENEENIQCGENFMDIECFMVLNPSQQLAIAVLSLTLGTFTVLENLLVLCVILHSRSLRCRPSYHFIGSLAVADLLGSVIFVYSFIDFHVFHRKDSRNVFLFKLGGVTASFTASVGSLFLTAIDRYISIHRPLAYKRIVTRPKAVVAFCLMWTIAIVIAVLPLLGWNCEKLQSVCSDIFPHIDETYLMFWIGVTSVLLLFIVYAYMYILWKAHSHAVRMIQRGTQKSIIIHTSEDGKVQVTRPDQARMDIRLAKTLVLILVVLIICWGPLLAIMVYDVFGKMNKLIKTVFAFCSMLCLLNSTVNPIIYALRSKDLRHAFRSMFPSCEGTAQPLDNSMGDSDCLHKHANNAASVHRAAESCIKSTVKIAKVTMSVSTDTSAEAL
Structure (SMILES),EC50 [1] [nM],EC50 [2] [nM]
"CN1CCCn2c(-c3cc(Cl)ccc3F)nc(C(=O)NC(CN3CCCC3)C(C)(C)C)c2C1 (centres unmarked) [Compound 720, 3-(5-chloro-2-fluorophenyl)-N-(3,3-dimethyl-1-(pyrrolidin-1-yl)butan-2-yl)-8-methyl-6,7,8,9-tetrahydro-5H-imidazo[1,5-a][1,4]diazepine-1-carboxamide]",> 10000,–
"CNC(=O)C1(NC(=O)c2nc(-c3cc(Cl)c(F)cc3F)n3c2CN(C)CCC3)CC1 [Compound 905, 3-(5-chloro-2,4-difluorophenyl)-8-methyl-N-(1-(methylcarbamoyl)cyclopropyl)-6,7,8,9-tetrahydro-5H-imidazo[1,5-a][1,4]diazepine-1-carboxamide]",> 10000,–
"CN1CCCn2c(-c3cc(F)c(F)cc3F)nc(C(=O)NC(C)(C)CO)c2C1 [Compound 765, N-(1-hydroxy-2-methylpropan-2-yl)-8-methyl-3-(2,4,5-trifluorophenyl)-6,7,8,9-tetrahydro-5H-imidazo[1,5-a][1,4]diazepine-1-carboxamide]",> 10000,–
"CNC(=O)[C@@H](NC(=O)c1nc(-c2cccc(F)c2OC)n2c1CN(C)CCC2)C(C)(C)C [Compound 657, (S)-N-(3,3-dimethyl-1-(methylamino)-1-oxobutan-2-yl)-3-(3-fluoro-2-methoxyphenyl)-8-methyl-6,7,8,9-tetrahydro-5H-imidazo[1,5-a][1,4]diazepine-1-carboxamide]",> 10000,–
"CNC(=O)[C@@H]1CCN(C(=O)c2nc(-c3cc(Cl)c(F)cc3F)n3c2CN(C)CCC3)C1 [Compound 808, (R)-1-(3-(5-chloro-2,4-difluorophenyl)-8-methyl-6,7,8,9-tetrahydro-5H-imidazo[1,5-a][1,4]diazepine-1-carbonyl)-N-methylpyrrolidine-3-carboxamide]",> 10000,–
"CNC(=O)[C@@H](NC(=O)c1nc(-c2cccnc2OC(C)C)n2c1CN(C)CCC2)C(C)(C)C [Compound 641, (S)-N-(3,3-dimethyl-1-(methylamino)-1-oxobutan-2-yl)-3-(2-isopropoxypyridin-3-yl)-8-methyl-6,7,8,9-tetrahydro-5H-imidazo[1,5-a][1,4]diazepine-1-carboxamide]",> 10000,–
"CNC(=O)[C@@H](NC(=O)c1nc(-c2ccc(C)c(F)c2)n2c1CN(C)CC2)C(C)(C)C [Compound 240, (S)-N-(3,3-dimethyl-1-(methylamino)-1-oxobutan-2-yl)-3-(3-fluoro-4-methylphenyl)-7-methyl-5,6,7,8-tetrahydroimidazo[1,5-a]pyrazine-1-carboxamide]",–,10 to 100
"CNC(=O)[C@@H](NC(=O)c1nc(-c2ccc(C)cc2F)n2c1CN(C)CC2)C(C)(C)C [Compound 249, (S)-N-(3,3-dimethyl-1-(methylamino)-1-oxobutan-2-yl)-3-(2-fluoro-4-methylphenyl)-7-methyl-5,6,7,8-tetrahydroimidazo[1,5-a]pyrazine-1-carboxamide]",–,10 to 100
"C[C@@H](NC(=O)c1nc(-c2ccccc2)n2c1CN(C(=O)C1CCOC1)CC2)C1CCCCC1 (stereo partly drawn) [Compound 139, N-((R)-1-cyclohexylethyl)-3-phenyl-7-(tetrahydrofuran-3-carbonyl)-5,6,7,8-tetrahydroimidazo[1,5-a]pyrazine-1-carboxamide]",–,10 to 100
"CCN1CCn2c(-c3ccccc3)nc(C(=O)NCC3CCOCC3)c2C1 [Compound 168, 7-ethyl-3-phenyl-N-((tetrahydro-2H-pyran-4-yl)methyl)-5,6,7,8-tetrahydroimidazo[1,5-a]pyrazine-1-carboxamide]",–,10 to 100
"CCc1nc(C(=O)N[C@H](C(=O)NC)C(C)(C)C)c2n1CCN(C)C2 [Compound 310, (S)-N-(3,3-dimethyl-1-(methylamino)-1-oxobutan-2-yl)-3-ethyl-7-methyl-5,6,7,8-tetrahydroimidazo[1,5-a]pyrazine-1-carboxamide]",–,10 to 100
"CNC(=O)[C@@H](NC(=O)c1nc(CCCC2CCCC2)n2c1CN(C)CCC2)C(C)(C)C [Compound 494, (S)-3-(3-cyclopentylpropyl)-N-(3,3-dimethyl-1-(methylamino)-1-oxobutan-2-yl)-8-methyl-6,7,8,9-tetrahydro-5H-imidazo[1,5-a][1,4]diazepine-1-carboxamide]",–,10 to 100
"CC(C)CCNC(=O)c1nc(-c2ccc(Cl)cc2)n2c1CN(C(=O)C1CC1)CC2 [Compound 131, 3-(4-chlorophenyl)-7-(cyclopropanecarbonyl)-N-isopentyl-5,6,7,8-tetrahydroimidazo[1,5-a]pyrazine-1-carboxamide]",–,10 to 100
"CC(C)CN1CCn2c(-c3ccccc3)nc(C(=O)Nc3ccccc3)c2C1 [Compound 150, 7-isobutyl-N,3-diphenyl-5,6,7,8-tetrahydroimidazo[1,5-a]pyrazine-1-carboxamide]",–,10 to 100
"CC(C)CN1CCn2c(-c3ccccc3)nc(C(=O)NCC3CCOCC3)c2C1 [Compound 167, 7-isobutyl-3-phenyl-N-((tetrahydro-2H-pyran-4-yl)methyl)-5,6,7,8-tetrahydroimidazo[1,5-a]pyrazine-1-carboxamide]",–,10 to 100
"CC(C)CN1CCn2c(-c3ccccc3)nc(C(=O)NC3C4(C)CCC(C4)C3(C)C)c2C1 (centres unmarked) [Compound 142, 7-isobutyl-3-phenyl-N-(1,3,3-trimethylbicyclo[2.2.1]heptan-2-yl)-5,6,7,8-tetrahydroimidazo[1,5-a]pyrazine-1-carboxamide]",–,10 to 100
"Cc1noc([C@@H](NC(=O)c2nc(-c3ccccc3)n3c2CN(C2CC2)CC3)C(C)(C)C)n1 [Compound 198, (S)-7-cyclopropyl-N-(2,2-dimethyl-1-(3-methyl-1,2,4-oxadiazol-5-yl)propyl)-3-phenyl-5,6,7,8-tetrahydroimidazo[1,5-a]pyrazine-1-carboxamide]",–,0.1 to 10
"CCS(=O)(=O)N1CCn2c(-c3ccccc3)nc(C(=O)NC3C4(C)CCC(C4)C3(C)C)c2C1 (centres unmarked) [Compound 112, 7-(ethylsulfonyl)-3-phenyl-N-(1,3,3-trimethylbicyclo[2.2.1]heptan-2-yl)-5,6,7,8-tetrahydroimidazo[1,5-a]pyrazine-1-carboxamide]",–,10 to 100
"COC(=O)N1CCn2c(-c3ccccc3)nc(C(=O)NC3C4(C)CCC(C4)C3(C)C)c2C1 (centres unmarked) [Compound 178, methyl 3-phenyl-1-(1,3,3-trimethylbicyclo[2.2.1]heptan-2-ylcarbamoyl)-5,6-dihydroimidazo[1,5-a]pyrazine-7(8H)-carboxylate]",–,10 to 100
"CC(C)CN1CCn2c(-c3ccccc3)nc(C(=O)N[C@@H](C)C(C)(C)C)c2C1 [Compound 53, (S)-N-(3,3-dimethylbutan-2-yl)-7-isobutyl-3-phenyl-5,6,7,8-tetrahydroimidazo[1,5-a]pyrazine-1-carboxamide]",–,10 to 100
"CNC(=O)[C@@H](NC(=O)c1nc(C2=CCC(C)CC2)n2c1CN(C)CC2)C(C)(C)C (stereo partly drawn) [Compound 270, N-((S)-3,3-dimethyl-1-(methylamino)-1-oxobutan-2-yl)-7-methyl-3-(4-methylcyclohex-1-enyl)-5,6,7,8-tetrahydroimidazo[1,5-a]pyrazine-1-carboxamide]",–,10 to 100
"COC(=O)N1CCn2c(-c3ccccc3)nc(C(=O)N[C@@H](C)c3ccccc3)c2C1 [Compound 179, (S)-methyl 3-phenyl-1-(1-phenylethylcarbamoyl)-5,6-dihydroimidazo[1,5-a]pyrazine-7(8H)-carboxylate]",–,10 to 100
CNC(=O)[C@@H](NC(=O)c1nc(-c2ccc(Cl)cc2F)n2c1CN(C(=O)OC(C)(C)C)CCC2)C(C)(C)C [Compound 313],–,10 to 100
